# Ends that are not written are not given here.
# What was measured:
# [1] = tested on: poly(PR) zebrafish model; assay: poly(PR) zebrafish model of motor axonopathy; assay type: in vivo
# Experimental: Therefore, a morpholino-mediated NEK6 knockdown was performed in a poly(PR) zebrafish model as described in Swinnen et al (2018 Acta Neuropathol doi:10.1007/s00401-017-1796-5). In this model, micro-injection of poly(PR) encoding mRNA results in a motor axonopathy in zebrafish embryos, characterised by reduced axonal lengths and aberrant axonal branching (Swinnen et al 2018 Acta Neuropathol doi:10.1007/s00401-017-1796-5).
# Zebrafish work was performed as previously described in Swinnen et al (2018 Acta Neuropathol 135, 427-443). Zebrafish oocytes were injected at one-cell stage with the indicated amounts of the morpholinos. The splice-blocking morpholino against Danio rerio nek6 (transcript ENSDART00000132599.2; morpholino sequence 5′-[…]-3′) and the standard control oligo (morpholino sequence 5′-[…]-3′) were designed and generated by Gene Tools (Philomath, USA). Injected oocytes were incubated at 28° C. After 24 hpf, the embryos were dechorionated by using a forceps. Only morphologically normal embryos were selected for downstream experiments. At 30 hpf, the selected fish were deyolked and subsequently fixed overnight at 4° C. in 4% formaldehyde in lx PBS. Fish were permeabilized with acetone for 1 h at −20° C., blocked with 1% BSA/1% DMSO/PBS for 1 h at room temperature and immune-stained with mouse anti-SV2 primary antibody followed by secondary antibody. For phenotyping, 15 consecutive embryos per condition were analyzed with imaging (Leica DM 3000 LED microscope; DMK 33UX250 USB3.0 monochrome industrial camera, The Imaging Source, Bremen, Germany) and the Lucia software (version 4.60, Laboratory Imaging, Prague, Czech Republic) by a blinded observer. For the axonal length, a standardized method was used; five predefined and consecutive motor axons (i.e. the 8th up to the 12th axon on one side) were measured in all 15 embryos. Data for axonal length were normalized to the control condition. For the abnormal branching, a predefined set of 20 consecutive motor axons (i.e. the 8th up to the 17th axon on both sides) in the same 15 embryos were analyzed visually. […]
# [2] = tested on: hiPSC-derived cortical neurons treated with PR20; assay: Axonal transport analysis (mitochondrial transport, MitoTracker-Red) in PR20-treated neurons; assay type: cell-based, human; conditions: for axonal transport defects observed upon PR-treatment: 200 nm I-3 or 300 nm I-18, added 3 days before and together with PR20; for number of moving mitochondria / ratio of moving mitochondria to total amount of mitochondria: 200 nm I-3 or 300 nm I-18, vs PR-treatment alone
# Experimental: Axonal transport defects are an early event in the pathogenesis of ALS (Guo et al 2019 Semin Cell Dev Biol 99:133-150). To assess whether axonal transport defects also occur in cortical neurons from healthy donor hiPSC-cortical neurons treated with PR20 and from C9orf72 patient-derived cortical neurons, mitochondrial transport studies were performed.
# To test whether chemical inhibition of NEK6 could be used as a treatment of DPR toxicity as well, the recently described NEK6 inhibitor ZINC05007751 was tested. iCas9-hiPSC derived cortical neurons (cultured for 70-80 days) were treated with 1.75 μM to 14 μM of the inhibitor at dayl and at day 3. The cells were subjected to a PR20 treatment (1.5 μM) at day 3 together with the compound. Axonal transport measurements were performed at day 4.
# The same experiments are performed with the NEK6 inhibitors ZINC05007751 and with the NEK6 inhibitors described in WO2019126696A1.
# DIV79-DIV84 iPSC-derived cortical neurons were loaded with MitoTracker-Red (50 nM, Invitrogen), washed and left to equilibrate (20 min) in NMM, before transferring them to a HEPES buffered salt solution (pH 7.4, 150 mM NaCl, 5 mM KCl, 1 mM MgCl2, 2 mM CaCl2, 10 mM glucose, 10 mM HEPES). Measurements were performed on an inverted Zeiss Axiovert 200M microscope (Carl Zeiss) with a 40× water immersion lens. Neurons were selected under differential interference optics (DIC) based on typical morphology consisting of a soma and long-extended neurites. MitoTracker-RED was excited at 580 nm, using a TILL Poly V light source (TILL Photonics) and image sequences were recorded (200 images at 1 Hz) onto a cooled CCD camera (PCO Sensicam-QE) using TillVisION (TILL Photonics) software. A heated gravityfed perfusion system was used to keep cells at 36±0.5° C. during the recordings. All image analysis was performed in Igor Pro (Wavemetrics) using custom written routines based on a previously described analysis algorithm (Vanden Berghe 2004 Am. J. Physiol. Gastrointest. Liver Physiol. 286, G671-G682). In brief, kymographs or spatio-temporal maps were constructed for each of the neuronal processes. In these maps, stationary mitochondria appear as vertical lines and moving mitochondria generate tilted lines. Proportions of moving and stationary mitochondria were extracted from the maps by marking and analyzing the properties of each of the mitochondrial trajectories.
# [3] = tested on: iCas9-iPSC DIV80 neuronal progeny; assay type: cell-based; conditions: human
# Experimental: Next, the iCas9-iPSC derived DIV79 neurons were treated with PR20 peptides to mimic DPR toxicity (Cheng et al 2019 Neuron 72:1-14; Kramer et al 2018 Nat Genet 50:603-612).
# To validate results from the screen, iCas9-NPCs were individually transduced with sgRNAs directed against the top 3 candidate genes, CRKL, SNRK and NEK6, that enhanced survival in the interference screen. A 50-60% reduction in protein levels of CRKL, SNRK and NEK6 was observed after doxycycline treatment (FIG. 5). […] A more pronounced effect could be observed using sgRNAs against NEK6 and SNRK.
# Resazurin (R7017, Sigma) was added to the cells in neuron maintenance medium (NMM) at a concentration of 1 μg/ml. Cells were incubated for 1 h in 37° C. with 5% CO2. […] was evaluated using 540 nm excitation and 590 nm emission settings.
# [4] = co-injection of poly(PR) mRNA with 0.5 mM morpholino, 30 hpf
compound,measurement,setting,value
5′-ATGTTAGAAAGTGTACCTCGATGCA-3′ (all phosphorodiamidate morpholino (PMO)) [Nek6 morpholino],poly(PR)-induced axonal phenotype,[1]; co-injection of poly(PR) mRNA with 0.5 mM morpholino in oocytes,significantly prevented
same,aberrant axonal branching,[1]; [4],less aberrantly branched axons
same,axonal length,[1]; [4],partial normalization
COc1cc(N2CCN(C)CC2)ccc1Nc1ncc2c(n1)n1c(cc3ccccc31)c(=O)n2C [Compound I-3],axonal transport defects observed upon PR-treatment,[2],statistically significantly rescues
same,number of moving mitochondria,[2],statistically significantly improved
same,ratio of moving mitochondria to total amount of mitochondria,[2],statistically significantly improved
CCOc1cc(N2CCC(O)CC2)ccc1Nc1ncc2c(n1)n1c(cc3ccccc31)c(=O)n2C [Compound I-18],axonal transport defects observed upon PR-treatment,[2],statistically significantly rescues
same,number of moving mitochondria,[2],statistically significantly improved
same,ratio of moving mitochondria to total amount of mitochondria,[2],statistically significantly improved
same,number of total mitochondria,"[2]; 300 nm I-18, vs PR-treatment alone",statistically significantly increased
CC1=C(C#N)C(O)=NC(=O)/C1=C\c1ccc(-c2ccccc2)o1 [ZINC05007751],axonal transport defects induced by PR20,"[2]; 1.75 μM to 14 μM inhibitor at day 1 and day 3, PR20 1.5 μM at day 3, measured at day 4",overruled the axonal transport defects
PRPRPRPRPRPRPRPRPRPRPRPRPRPRPRPRPRPRPRPR [PR20],"neuronal progeny died (dose-response, cell viability)",[3],70-80%
same,axonal transport,"[2]; 1.5 μM PR20, normal donor iPSC-DIV79 cortical neurons",significantly decreased

# Reference: US20220313697A1, “NEK6 Inhibition to Treat ALS and FTD” (VIB VZW, priority 2021, published 2022)
